Reference: US10709140B2, “Methods and products for reducing the population size of Papilio demoleus L. (papilionidae)” (The University of The West Indies, priority 2010, dated 2020)

What was measured:
P. demoleus [1] = experiment: Induced egg laying of P. demoleus on Piper amalago var. amalago plant sprayed with lime plant oil (choice test, Example 2); assay type: in vivo, Papilio demoleus; details: Piper amalago var. amalago plant sprayed with the attractant
Text: P. demoleus were induced to lay eggs on Piper amalago var. amalago plant to confirm its unsuitability to sustain target insects and to determine whether it could be used to reduce the population size of target insects. Natural Piper amalago var. amalago plant was considered a suitable non-host plant because P. demoleus would not feed or breed on it in the wild.
Twelve pupae bred on lime plants were placed in the laying cage and were allowed to mate. Gravid females were given a choice of plants on which to lay: unsprayed lime, unsprayed Piper amalago var. amalago plant, and Piper amalago var. amalago plant sprayed with lime plant oil. Piper amalago var. amalago plant sprayed with lime plant oil was prepared using an aerosol spray containing 0.45% by weight lime plant oil in a hydrocarbon mixture. The aerosol mixture was applied to the young leaves of Piper amalago var. amalago plants twice daily.
Gravid females were allowed to lay eggs until the laying subsided on the tenth day. Of the 95 eggs laid, the majority were laid on Piper amalago var. amalago plant sprayed with lime oil. Sixty-one eggs, or 64%, were laid on Piper amalago var. amalago plant sprayed with lime oil. Only 34 eggs, or 36%, were laid on unsprayed lime plant. No eggs were laid on unsprayed Piper amalago var. amalago plant. […]

P. demoleus [2] = experiment: Egg laying by P. demoleus on Piper aduncum cuttings sprayed with lime oil or d-limonene (choice test, Example 5); assay type: in vivo, Papilio demoleus
Protocol: Five P. demoleus pupae were placed in the cage. Upon hatching, the emerging adults were determined to be 3 males and 2 females. The butterflies were allowed to mate and given a choice of plants on which to lay by placing all around the cage unsprayed lime seedlings, unsprayed Piper aduncum cuttings, Piper aduncum cuttings sprayed with lime oil, and Piper aduncum cuttings sprayed with d-limonene. Egg laying was allowed to continue for up a total of 16 days, only the first 8 of which the Piper aduncum shoots remained fresh. Referring to Table 5A, a total of 16 eggs were laid in the first 8 days. The majority of eggs (62.5%) were laid on unsprayed lime plant. However, a significant number of eggs were laid on sprayed Piper aduncum shoots (37.5%). […] No eggs were laid on unsprayed Piper aduncum.
After day 8, the Piper aduncum leaves began to wilt and were noticeably less attractive to gravid females. […] By day 20, no more eggs were laid, and the total number of eggs was counted.
All of the eggs that were laid on lime plant hatched into larvae that fed normally on the lime plant leaves on which they were laid. The 6 eggs laid on Piper aduncum shoots sprayed with lime oil or d-limonene hatched normally. The Piper aduncum shoots were still young, fresh, and otherwise capable of sustaining larvae when the eggs laid eggs on sprayed Piper aduncum shoots hatched. […]

C=C(C)[C@H]1CC=C(C)CC1 [d-limonene]
breeding and feeding on sprayed Piper amalago var. amalago plants (P. demoleus [1]): majority of the P. demoleus population was induced to breed, but not feed | eggs laid on sprayed Piper aduncum (P. demoleus [2]; Days 1-8, choice vs unsprayed lime and unsprayed Piper aduncum, total 16 eggs): 3 eggs | eggs laid on sprayed Piper aduncum (P. demoleus [2]; Days 9-20 as titled, total 39 eggs): 3 eggs
